In US4975370A, “Process for preparing 14-hydroxy-6-O-methyl-erythromycin A” (Taisho Pharmaceutical Co., Ltd., priority 1986, dated 1990):
Converted amounts (≈) assume the structure as drawn.

What was measured:
Gram-positive bacteria [1] = test: In vivo antibacterial activity (general statement, effective amount)
[2] = system: Gram-negative bacteria, especially Neisseria gonorroeae and Haemophilus influenzae; test: In vitro antibacterial activity (general statement); assay type: cell-based; settings: some Gram-negative bacteria
Gram-positive bacteria [3] = test: as above; assay type: cell-based
Solubility = assay type: physicochemical
[4] = Acute toxicity (LD50) in ICR mice; settings: mouse, in vivo, intravenous administration
[5] = system: Streptococcus pneumoniae IID 553; test: In vivo antibacterial test, experimental infection in mouse; settings: Streptococcus pneumoniae IID 553 infection (intraperitoneal), male ICR mice 26±1 g, drug orally, 7 days observation, probit analysis
Method: (§1) The in vivo antibacterial activity of 14-hydroxy-6-O-methylerythromycin A was measured by effect of treatment on experimental infectious diseases in mouse. 6-O-methylerythromycin A and erythromycin A were used as comparative drugs. Staphylococcus aureus BB and Streptococcus pneumoniae IID 553 were used as experimental infectious diseases of mouse. Ten male ICR mice, weighing 26±1 g, were used for each group to a different concentration of one drug. The bacteria were administered intraperitoneally to each groups of […] for infection. 14-hydroxy-6-O-methylerythromycin A, 6-O-methylerythromycin A and erythromycin A were administered orally to different groups of mice. After observing for 7 days, ED50 value was calculated from the number of mice serviving.
(§2) The ED50 values having 95% confidence limits were estimated by probit analysis.

Staphylococcus aureus BB [6] = test: as above; settings: Staphylococcus aureus BB infection (intraperitoneal), male ICR mice 26±1 g, drug orally, 7 days observation, probit analysis
Method: as §1, §2

[7] = system: Escherichia coli NIHJ JC-2; test: In vitro antibacterial activity (MIC method of the Japan Chemotherapeutic Society); assay type: cell-based; settings: NIHJJC2, read-out: MIC (minimum inhibitory concentration)
Method: (§3) The antibacterial activity (MIC: minimum inhibitory concentration) of 14-hydroxy-6-O-methylerythromycin A was measured according to the MIC method specified by the Japan Chemotherapeutic Society.

[8] = system: Staphylococcus aureus 209P-JC; test: as above; assay type: cell-based; settings: read-out: MIC (minimum inhibitory concentration)
Method: as §3

[9] = system: Staphylococcus pyogenes IID 689; test: as above; assay type: cell-based; settings: Streptococcus pyogenes, IID689, read-out: MIC (minimum inhibitory concentration)
Method: as §3

Branhamella catarrhalis = test: as above; assay type: cell-based; settings: Moraxella catarrhalis, read-out: MIC (minimum inhibitory concentration)
Method: as §3

[10] = system: Staphylococcus pneumoniae IDD 552; test: as above; assay type: cell-based; settings: IDD552, read-out: MIC (minimum inhibitory concentration)
Method: as §3

[11] = system: Klebsiella pneumoniae IFO 3317; test: as above; assay type: cell-based; settings: IFO3317, read-out: MIC (minimum inhibitory concentration)
Method: as §3

[12] = system: Staphylococcus pneumoniae IDD 553; test: as above; assay type: cell-based; settings: IDD553, read-out: MIC (minimum inhibitory concentration)
Method: as §3

Micrococcus luteus NIHJ = test: as above; assay type: cell-based; settings: read-out: MIC (minimum inhibitory concentration)
Method: as §3

[13] = system: Staphylococcus epidermidis IID 866; test: as above; assay type: cell-based; settings: IID866, read-out: MIC (minimum inhibitory concentration)
Method: as §3

[14] = system: Staphylococcus aureus Smith 4; test: as above; assay type: cell-based; settings: SMITH4, read-out: MIC (minimum inhibitory concentration)
Method: as §3

[15] = system: Haemophilus influenzae J-48; test: as above; assay type: cell-based; settings: J48, read-out: MIC (minimum inhibitory concentration)
Method: as §3

[16] = system: Micrococcus luteus ATCC 9341; test: as above; assay type: cell-based; settings: ATCC9341, read-out: MIC (minimum inhibitory concentration)
Method: as §3

Salmonella enteritidis = test: as above; assay type: cell-based; settings: Salmonella enterica, read-out: MIC (minimum inhibitory concentration)
Method: as §3

[17] = system: Enterococcus faecalis ATCC 8043; test: as above; assay type: cell-based; settings: ATCC8043, read-out: MIC (minimum inhibitory concentration)
Method: as §3

Staphylococcus aureus BB [18] = test: as above; assay type: cell-based; settings: read-out: MIC (minimum inhibitory concentration)
Method: as §3

[19] = system: Neisseria gonorrhoeae TCC-4; test: as above; assay type: cell-based; settings: TCC4, read-out: MIC (minimum inhibitory concentration)
Method: as §3

[20] = system: Bacillus subtilis ATCC 6633; test: as above; assay type: cell-based; settings: ATCC6633, read-out: MIC (minimum inhibitory concentration)
Method: as §3

**Q.** With CO[C@]1(C)C[C@@H](C)C(=O)[C@H](C)[C@@H](O)[C@](C)(O)[C@@H](C(C)O)OC(=O)[C@H](C)[C@@H](O[C@H]2C[C@@](C)(OC)[C@@H](O)[C@H](C)O2)[C@H](C)[C@H]1O[C@@H]1O[C@H](C)C[C@H](N(C)C)[C@H]1O (stereo partly drawn) [14-hydroxy-6-O-methylerythromycin A] as the molecule, how does the “in vivo antibacterial activity against some Gram-positive bacteria” value (Gram-positive bacteria [1]; compared with 6-O-methylerythromycin A) read?
**A.** The value was “stronger”.

**Q.** And the ED50 (Gram-positive bacteria [1]; general statement)?
**A.** The ED50 was 3 to 10 mg/kg.

**Q.** And the “in vitro antibacterial activity” value [2]?
**A.** Its value is “strong”.

**Q.** What about the “in vitro antibacterial activity” value (Gram-positive bacteria [3]) of the same molecule?
**A.** The value was “strong”.

**Q.** And the Solubility (Solubility; in chloroform, methanol, ethanol, acetone, ethyl acetate and pyridine)?
**A.** The Solubility was “Soluble”.

**Q.** What about the Solubility (Solubility; in ethyl ether, n-hexane, petroleum ether, benzene and water) of the same molecule?
**A.** Its Solubility is “Poorly soluble”.

**Q.** And the LD50 [4]?
**A.** Its LD50 is 560 mg/kg.

**Q.** What about the ED50 [5] of the same molecule?
**A.** Its ED50 is 0.069 mg/mouse.

**Q.** What about the ED50 (Staphylococcus aureus BB [6]) of the same molecule?
**A.** The ED50 was 0.234 mg/mouse.

**Q.** And the MIC [7]?
**A.** The MIC was 50 µg/mL (≈ 65.4 µM).

**Q.** And the MIC [8]?
**A.** Its MIC is 0.1 µg/mL (≈ 0.131 µM).

**Q.** What about the MIC [9] of the same molecule?
**A.** Its MIC is 0.025 µg/mL (≈ 0.0327 µM).

**Q.** And the MIC (Branhamella catarrhalis)?
**A.** The MIC was 0.05 µg/mL (≈ 0.0654 µM).

**Q.** And the MIC [10]?
**A.** The MIC was 0.025 µg/mL (≈ 0.0327 µM).

**Q.** What about the MIC [11] of the same molecule?
**A.** The MIC was 25 µg/mL (≈ 32.7 µM).

**Q.** What about the MIC [12] of the same molecule?
**A.** The MIC was 0.025 µg/mL (≈ 0.0327 µM).

**Q.** What about the MIC (Micrococcus luteus NIHJ) of the same molecule?
**A.** Its MIC is 0.05 µg/mL (≈ 0.0654 µM).

**Q.** And the MIC [13]?
**A.** Its MIC is 0.2 µg/mL (≈ 0.262 µM).

**Q.** What about the MIC [14] of the same molecule?
**A.** The MIC was 0.2 µg/mL (≈ 0.262 µM).

**Q.** What about the MIC [15] of the same molecule?
**A.** Its MIC is 3.13 µg/mL (≈ 4.1 µM).

**Q.** What about the MIC [16] of the same molecule?
**A.** Its MIC is 0.025 µg/mL (≈ 0.0327 µM).

**Q.** And the MIC (Salmonella enteritidis)?
**A.** The MIC was 25 µg/mL (≈ 32.7 µM).

**Q.** What about the MIC [17] of the same molecule?
**A.** The MIC was 0.05 µg/mL (≈ 0.0654 µM).

**Q.** And the MIC (Staphylococcus aureus BB [18])?
**A.** Its MIC is 0.2 µg/mL (≈ 0.262 µM).

**Q.** What about the MIC [19] of the same molecule?
**A.** The MIC was 0.39 µg/mL (≈ 0.51 µM).

**Q.** And the MIC [20]?
**A.** The MIC was 0.1 µg/mL (≈ 0.131 µM).

**Q.** Which ED50 [5] does the source give for CC[C@H]1OC(=O)[C@H](C)[C@@H](O[C@H]2C[C@@](C)(OC)[C@@H](O)[C@H](C)O2)[C@H](C)[C@@H](O[C@@H]2O[C@H](C)C[C@H](N(C)C)[C@H]2O)[C@](C)(O)C[C@@H](C)C(=O)[C@H](C)[C@@H](O)[C@]1(C)O [Erythromycin A, erythromycin A] here?
**A.** Its ED50 is 1.43 mg/mouse.

**Q.** What about the ED50 (Staphylococcus aureus BB [6]) of the same molecule?
**A.** Its ED50 is 2.20 mg/mouse.

**Q.** With CC[C@H]1OC(=O)[C@H](C)[C@@H](O[C@H]2C[C@@](C)(OC)[C@@H](O)[C@H](C)O2)[C@H](C)[C@@H](O[C@@H]2O[C@H](C)C[C@H](N(C)C)[C@H]2O)[C@](C)(OC)C[C@@H](C)C(=O)[C@H](C)[C@@H](O)[C@]1(C)O [6-O-Methyl-erythromycin A, 6-O-methylerythromycin A] as the molecule, how does the ED50 [5] read?
**A.** The ED50 was 0.222 mg/mouse.

**Q.** What about the ED50 (Staphylococcus aureus BB [6]) of the same molecule?
**A.** Its ED50 is 0.394 mg/mouse.
